# Reference: article PMC8657793, “Synthesis, In Vitro and In Silico Anticancer Activity of New 4-Methylbenzamide Derivatives Containing 2,6-Substituted Purines as Potential Protein Kinases Inhibitors” (International Journal of Molecular Sciences, 2021)
# Several values for one entry are separate records, joined by “and”; a condition that tells them apart may be missing. Equal entries are not always repeated.
# Tests used:
# [1] = system: OKP-GS (renal cell carcinoma); test: MTT anti-proliferative assay, OKP-GS; type: cell-based; conditions: Homo sapiens, 48 h
# Protocol: (§1) To determine the selectivity of the synthesized compounds 7–16 toward various cancer cells and normal human cells, the anti-proliferative activity against K562 (chronic myelogenous leukemia), HL-60 (promyelocytic leukemia), MCF-7 (breast adenocarcinoma), HeLa (cervix carcinoma), HepG2 (human liver cancer), A549 (lung carcinoma), OKP-GS (renal cell carcinoma), and normal cells RPMI 1788 (B lymphocyte, the human cell line) was investigated.
# (§2) Each in vitro experiment was performed at least in triplicate and the standard deviation of absorbance was less than 10% of the mean. For the in vitro assays, a stock solution (1% DMSO in the appropriate buffer with the tested compound diluted under sonication) was prepared from which several dilutions were made with the appropriate buffer.
# (§3) Human cell lines were obtained from the Institute of Cytology, Russian Academy of Sciences. The cell lines studied were maintained in RPMI 1640 medium (AppliChem, Darmstadt, Germany) supplemented with 20% (HL-60, RPMI 1788) fetal calf serum (HyClone, Cramlington, UK), in DMEM (A 549) and Eagle’s MEM (AppliChem) (MCF7, HeLa) with 10% fetal calf serum (HyClone). Cells were cultivated at 37 °C in a humidified atmosphere of 5% CO2. Cellular sensitivities to synthesized compounds and standards were measured with the MTT assay. Cells were plated in triplicate in 96-well plates (10^5 cells/well for suspended cell cultures and 5 × 10^3 cells/well for monolayer cultures); on the same day (suspended cell cultures) or on the following day (monolayer cultures), compounds were added at the appropriate dilutions. Anti-proliferative activity was studied at concentrations 0.1–50.0 µM. The reference drugs were imatinib, sorafenib and nilotinib. Plates were incubated under standard conditions for 48 h. Thereafter, 10 μL MTT (Sigma) in phosphate-buffered saline (5 mg/mL) was added. The plates were incubated for an additional 4 h and 150 μL dimethylsulphoxide (DMSO) was added to dissolve the formazan crystals. The optical density was read on a HALO MPR-95 Microplate Reader (Dynamica Scientific Ltd., Melbourne, Victoria, Australia) at 570 nm. The antiproliferative effects were taken as degrees of inhibition of tumor cells (%). The average of three parallel measurements was calculated for each concentration of test compound. The degree of cell growth suppression was plotted as a function of the logarithm of the concentration. The half maximal inhibitory concentration (IC50) was determined graphically for active compounds.
# [2] = target: T1, KDR (VEGFR-2) (Homo sapiens, UniProt P35968); test: Kinase Selectivity Profiling System TK-1 / ADP-Glo, KDR; type: biochemical
# T1 construct: purchased Promega
# Protocol: (§4) At the end, 10 μL of kinase detection reagent was added into the well and incubated for 30 min to produce a luminescence signal.
# [3] = target: T2, PDGFRβ (Homo sapiens, UniProt P09619); test: Kinase Selectivity Profiling System TK-1 / ADP-Glo, PDGFRβ; type: biochemical
# T2 construct: purchased Promega
# Protocol: as §4
# [4] = target: T3, HER2 (Homo sapiens, UniProt P04626); test: Kinase Selectivity Profiling System TK-1 / ADP-Glo, HER2; type: biochemical
# T3 construct: purchased Promega
# T3 sequence (P04626 23-1255): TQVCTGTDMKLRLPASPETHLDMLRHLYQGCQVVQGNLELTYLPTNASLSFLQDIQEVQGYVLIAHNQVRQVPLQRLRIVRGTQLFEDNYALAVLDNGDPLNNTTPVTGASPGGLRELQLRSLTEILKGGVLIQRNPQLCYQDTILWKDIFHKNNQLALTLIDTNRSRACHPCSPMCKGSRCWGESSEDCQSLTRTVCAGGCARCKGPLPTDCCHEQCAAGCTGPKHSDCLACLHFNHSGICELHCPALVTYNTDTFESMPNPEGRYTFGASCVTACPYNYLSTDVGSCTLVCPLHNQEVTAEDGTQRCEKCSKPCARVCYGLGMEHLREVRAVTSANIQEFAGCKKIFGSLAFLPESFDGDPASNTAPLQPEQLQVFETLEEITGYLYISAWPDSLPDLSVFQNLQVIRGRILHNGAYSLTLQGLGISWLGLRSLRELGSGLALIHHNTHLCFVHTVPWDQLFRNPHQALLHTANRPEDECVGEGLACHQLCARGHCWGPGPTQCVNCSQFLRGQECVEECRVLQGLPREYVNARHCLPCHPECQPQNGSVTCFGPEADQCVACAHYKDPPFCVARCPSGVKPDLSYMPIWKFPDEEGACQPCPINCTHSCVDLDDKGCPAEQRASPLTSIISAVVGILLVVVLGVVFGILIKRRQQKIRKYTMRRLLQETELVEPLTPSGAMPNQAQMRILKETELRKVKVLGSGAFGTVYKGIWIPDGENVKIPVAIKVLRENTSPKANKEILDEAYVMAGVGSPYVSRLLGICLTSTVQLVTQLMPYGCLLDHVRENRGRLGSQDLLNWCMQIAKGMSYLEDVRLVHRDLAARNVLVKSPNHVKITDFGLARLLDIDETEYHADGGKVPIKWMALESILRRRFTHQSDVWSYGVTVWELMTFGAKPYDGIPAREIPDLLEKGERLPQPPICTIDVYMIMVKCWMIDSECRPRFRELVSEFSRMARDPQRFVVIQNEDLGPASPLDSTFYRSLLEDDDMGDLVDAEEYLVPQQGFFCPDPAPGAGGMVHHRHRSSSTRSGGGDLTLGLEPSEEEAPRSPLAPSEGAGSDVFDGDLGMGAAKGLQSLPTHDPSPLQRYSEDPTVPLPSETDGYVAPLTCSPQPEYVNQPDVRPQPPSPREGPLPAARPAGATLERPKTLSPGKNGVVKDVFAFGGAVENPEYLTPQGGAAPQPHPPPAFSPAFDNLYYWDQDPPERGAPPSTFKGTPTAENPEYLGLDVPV
# Protocol: as §4
# [5] = target: T4, Bcr–Abl1 kinase (Homo sapiens, UniProt P00519); test: Abl1 Kinase Enzyme System / ADP-Glo kinase assay; type: biochemical; conditions: ATP 50 μM; for inhibition at 0.5 µM: 0.5 µM compound; for inhibition at 10 µM: 10 µM compound
# T4 construct: purchased Promega
# T4 sequence (P00519 whole entry): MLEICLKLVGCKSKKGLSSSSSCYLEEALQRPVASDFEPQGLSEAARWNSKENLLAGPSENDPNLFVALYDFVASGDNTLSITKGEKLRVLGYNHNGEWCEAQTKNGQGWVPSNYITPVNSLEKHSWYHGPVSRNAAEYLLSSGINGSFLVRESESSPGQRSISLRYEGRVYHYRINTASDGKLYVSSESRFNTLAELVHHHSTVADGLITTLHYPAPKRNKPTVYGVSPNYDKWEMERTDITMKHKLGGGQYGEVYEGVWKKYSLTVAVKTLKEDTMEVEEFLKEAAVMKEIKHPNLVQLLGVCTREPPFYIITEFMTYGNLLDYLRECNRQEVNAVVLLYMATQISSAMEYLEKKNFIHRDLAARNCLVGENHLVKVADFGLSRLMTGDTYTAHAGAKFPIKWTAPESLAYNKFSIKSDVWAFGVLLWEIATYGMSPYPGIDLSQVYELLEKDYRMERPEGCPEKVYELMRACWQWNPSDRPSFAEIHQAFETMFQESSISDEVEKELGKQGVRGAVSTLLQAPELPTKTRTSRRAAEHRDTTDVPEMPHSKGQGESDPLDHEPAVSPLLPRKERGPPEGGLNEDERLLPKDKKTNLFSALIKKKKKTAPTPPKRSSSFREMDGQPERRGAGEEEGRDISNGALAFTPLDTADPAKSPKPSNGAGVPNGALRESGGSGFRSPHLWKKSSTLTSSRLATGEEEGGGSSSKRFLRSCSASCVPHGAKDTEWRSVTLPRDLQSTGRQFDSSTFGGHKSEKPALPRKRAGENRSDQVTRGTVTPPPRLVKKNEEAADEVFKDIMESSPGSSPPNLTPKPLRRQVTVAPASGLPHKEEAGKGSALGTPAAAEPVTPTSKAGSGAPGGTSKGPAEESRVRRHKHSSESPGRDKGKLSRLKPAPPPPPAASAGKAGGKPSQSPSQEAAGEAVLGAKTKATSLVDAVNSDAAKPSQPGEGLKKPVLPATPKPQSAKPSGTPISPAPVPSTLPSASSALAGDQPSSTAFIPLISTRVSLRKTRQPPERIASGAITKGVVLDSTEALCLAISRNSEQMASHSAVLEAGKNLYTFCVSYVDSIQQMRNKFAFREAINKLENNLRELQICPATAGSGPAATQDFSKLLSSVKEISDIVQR
# Protocol: as §4
# [6] = system: A549 (lung carcinoma); test: MTT anti-proliferative assay, A549; type: cell-based; conditions: Homo sapiens, 48 h
# Protocol: as §1, §2, §3
# [7] = system: K562 (chronic myelogenous leukemia); test: MTT anti-proliferative assay, K562; type: cell-based; conditions: Homo sapiens, 48 h
# Protocol: (§5) For the in vitro assays, a stock solution (1% DMSO in the appropriate buffer with the tested compound diluted under sonication) was prepared from which several dilutions were made with the appropriate buffer.
# (§6) Human cell lines were obtained from the Institute of Cytology, Russian Academy of Sciences. […] Plates were incubated under standard conditions for 48 h.
# [8] = target: T5, IGF1R (Homo sapiens, UniProt P08069); test: Kinase Selectivity Profiling System TK-1 / ADP-Glo, IGF1R; type: biochemical
# T5 construct: purchased Promega
# Protocol: as §4
# [9] = system: HL-60 (promyelocytic leukemia); test: MTT anti-proliferative assay, HL-60; type: cell-based; conditions: Homo sapiens, 48 h
# Protocol: as §5, §6
# [10] = target: T6, EGFR (Homo sapiens, UniProt P00533); test: Kinase Selectivity Profiling System TK-1 / ADP-Glo, EGFR; type: biochemical
# T6 construct: purchased Promega
# Protocol: as §4
# [11] = system: HeLa (cervix carcinoma); test: MTT anti-proliferative assay, HeLa; type: cell-based; conditions: Homo sapiens, 48 h
# Protocol: as §1, §2, §3
# [12] = target: T7, InsR (Homo sapiens, UniProt P06213); test: Kinase Selectivity Profiling System TK-1 / ADP-Glo, InsR; type: biochemical
# T7 construct: purchased Promega
# T7 sequence (P06213 28-1382): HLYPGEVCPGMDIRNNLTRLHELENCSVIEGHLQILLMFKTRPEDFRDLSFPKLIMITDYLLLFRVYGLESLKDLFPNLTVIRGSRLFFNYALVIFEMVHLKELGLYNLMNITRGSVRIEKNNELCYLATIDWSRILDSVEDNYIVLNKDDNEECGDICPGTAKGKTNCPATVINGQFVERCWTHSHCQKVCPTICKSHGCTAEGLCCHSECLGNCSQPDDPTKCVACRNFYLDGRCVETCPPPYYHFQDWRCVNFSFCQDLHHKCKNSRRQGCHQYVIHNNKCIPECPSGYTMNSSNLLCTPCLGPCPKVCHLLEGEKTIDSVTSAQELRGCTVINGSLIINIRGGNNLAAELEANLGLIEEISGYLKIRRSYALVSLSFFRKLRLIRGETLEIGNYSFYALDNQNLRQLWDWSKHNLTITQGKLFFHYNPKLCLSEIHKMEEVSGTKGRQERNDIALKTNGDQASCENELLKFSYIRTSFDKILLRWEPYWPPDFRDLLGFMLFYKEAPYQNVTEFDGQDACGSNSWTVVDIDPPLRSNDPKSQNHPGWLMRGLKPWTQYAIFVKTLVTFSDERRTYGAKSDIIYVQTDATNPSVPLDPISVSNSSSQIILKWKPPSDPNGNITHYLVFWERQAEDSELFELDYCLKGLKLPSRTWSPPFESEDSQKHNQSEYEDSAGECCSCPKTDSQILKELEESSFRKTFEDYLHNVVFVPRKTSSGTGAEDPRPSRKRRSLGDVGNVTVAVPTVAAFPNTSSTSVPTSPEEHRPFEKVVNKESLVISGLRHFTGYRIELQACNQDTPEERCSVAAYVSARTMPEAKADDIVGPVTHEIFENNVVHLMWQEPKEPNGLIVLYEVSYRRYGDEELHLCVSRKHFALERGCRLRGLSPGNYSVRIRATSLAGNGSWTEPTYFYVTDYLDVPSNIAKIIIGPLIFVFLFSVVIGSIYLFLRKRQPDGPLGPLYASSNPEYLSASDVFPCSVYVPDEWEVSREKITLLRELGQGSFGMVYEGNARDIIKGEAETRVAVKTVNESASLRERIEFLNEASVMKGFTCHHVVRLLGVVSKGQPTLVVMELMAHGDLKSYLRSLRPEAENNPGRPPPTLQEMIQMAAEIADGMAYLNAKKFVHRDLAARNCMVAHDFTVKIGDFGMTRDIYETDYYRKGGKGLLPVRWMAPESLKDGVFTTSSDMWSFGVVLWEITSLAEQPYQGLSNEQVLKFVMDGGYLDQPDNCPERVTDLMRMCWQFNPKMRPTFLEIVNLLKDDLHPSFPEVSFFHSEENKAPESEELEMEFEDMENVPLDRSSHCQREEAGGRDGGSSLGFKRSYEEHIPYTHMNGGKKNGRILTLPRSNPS
# Protocol: as §4
# [13] = target: T8, HER4 (Homo sapiens, UniProt Q15303); test: Kinase Selectivity Profiling System TK-1 / ADP-Glo, HER4; type: biochemical
# T8 construct: purchased Promega
# T8 sequence (Q15303 26-1308): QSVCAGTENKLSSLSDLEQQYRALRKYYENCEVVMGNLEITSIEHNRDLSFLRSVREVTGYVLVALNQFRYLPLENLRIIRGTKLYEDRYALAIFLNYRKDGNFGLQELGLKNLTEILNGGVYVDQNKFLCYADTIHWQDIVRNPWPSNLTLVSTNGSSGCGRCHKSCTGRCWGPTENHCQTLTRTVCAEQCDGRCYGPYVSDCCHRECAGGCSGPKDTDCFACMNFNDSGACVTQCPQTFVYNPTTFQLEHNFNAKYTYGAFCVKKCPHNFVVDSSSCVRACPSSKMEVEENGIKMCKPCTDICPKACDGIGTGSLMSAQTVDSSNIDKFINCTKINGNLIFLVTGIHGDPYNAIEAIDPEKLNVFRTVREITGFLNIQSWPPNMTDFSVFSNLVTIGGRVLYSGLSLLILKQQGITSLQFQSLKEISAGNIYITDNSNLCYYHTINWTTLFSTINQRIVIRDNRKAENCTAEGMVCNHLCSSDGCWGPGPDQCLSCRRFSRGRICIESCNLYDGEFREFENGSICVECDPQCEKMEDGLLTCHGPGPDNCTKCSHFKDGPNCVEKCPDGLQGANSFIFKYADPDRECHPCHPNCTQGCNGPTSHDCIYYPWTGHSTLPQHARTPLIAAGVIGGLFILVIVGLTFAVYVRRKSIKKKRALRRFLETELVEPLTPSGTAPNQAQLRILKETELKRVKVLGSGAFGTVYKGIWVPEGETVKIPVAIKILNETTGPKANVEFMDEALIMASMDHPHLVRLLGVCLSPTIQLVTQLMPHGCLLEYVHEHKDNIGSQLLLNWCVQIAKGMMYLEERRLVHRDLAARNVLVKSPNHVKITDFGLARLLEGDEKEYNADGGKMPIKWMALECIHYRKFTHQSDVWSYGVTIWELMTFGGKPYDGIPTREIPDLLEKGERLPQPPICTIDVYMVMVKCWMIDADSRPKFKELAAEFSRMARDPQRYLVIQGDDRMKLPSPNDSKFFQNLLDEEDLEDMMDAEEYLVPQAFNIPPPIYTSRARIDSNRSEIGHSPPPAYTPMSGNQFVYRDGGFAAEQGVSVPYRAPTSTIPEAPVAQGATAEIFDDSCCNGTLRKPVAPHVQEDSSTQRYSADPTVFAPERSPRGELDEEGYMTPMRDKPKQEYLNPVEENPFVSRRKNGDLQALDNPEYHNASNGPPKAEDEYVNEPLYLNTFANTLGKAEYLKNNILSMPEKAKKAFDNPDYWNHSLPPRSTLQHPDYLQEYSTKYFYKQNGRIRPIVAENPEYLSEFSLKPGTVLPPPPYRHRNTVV
# Protocol: as §4
# [14] = system: OKP-GS cells; test: Cell cycle distribution, propidium iodide staining, flow cytometry; type: cell-based, human; conditions: 72 h
# Protocol: To assess changes in the distribution of cells by phases of the cell cycle, we used the method of staining fixed samples with propidium iodide (Calbiochem, USA). Pre-fixation of cells was carried out with 70% ethanol for […]. To exclude the binding of propidium iodide to RNA, the fixed samples were treated with RNAse A at a final concentration of 50 μg/mL (R4875, Sigma, St. Louis, MI, USA) for 15 min at 37 °C [34, 35].
# Tumor cells were seeded on a 6-well plate at a density of 200.000 per well for HL-60 and 100.000 per well for OKP-GS. Test compounds 7 and 10 were added at concentrations of 5, 10, and 20 μM for 72 h. Then, the cells were washed from the culture medium by centrifugation at 1000 rpm for 5 min, washed again with PBS, then fixed with ice-cold ethanol during constant shaking and incubated at −20 °C for 24 h. After that, we washed it from alcohol by centrifugation, washed it again with PBS and added a solution containing 100 μg/mL RNase A and 10 μg/mL propidium iodide (PI), incubated for 40 min in the dark and measure it on a Cytomics FC500 Beckman Coulter flow cytometer (FL4 channel for PI). Received data were analyzed with the help of Kaluza 2.0 Software (Beckman Coulter, Brea, CA, USA).
Structure (SMILES),IC50 [1],inhibition at 1 µM [2],inhibition at 1 µM [3],inhibition at 1 µM [4],inhibition at 0.5 µM [5],inhibition at 10 µM [5],IC50 [6],melting point,IC50 [7],inhibition at 1 µM [8],IC50 [9],inhibition at 1 µM [10],IC50 [11],inhibition at 1 µM [12],inhibition at 1 µM [13],Cells in G1 phase ([14]; 5 μM),Cells in G2/M phase ([14]; 5 μM),Cells in S phase ([14]; 5 μM),Cells in G2/M phase ([14]; 20 μM),Cells in S phase ([14]; 20 μM),other results
"COc1nc(Cl)nc2c1ncn2Cc1ccc(C(=O)Nc2cc(-n3cnc(C)c3)cc(C(F)(F)F)c2)cc1 [Compound 14, 4-((2-Chloro-6-methoxy-9H-purin-9-yl)methyl)-N-(3-(4-methyl-1H-imidazol-1-yl)-5-(trifluoromethyl)phenyl)benzamide]",10.6 ± 2.88 µM,27%,20%,8%,18%,17%,20.1 ± 0.81 µM,160 to 162 °C,27.5 ± 1.19 µM,0%,48.6 ± 3.02 µM,9%,33.7 ± 7.49 µM,17%,0%,,,,,,
"O=C(Nc1cccc(C(F)(F)F)c1)c1ccc(Cn2cnc3c(Cl)nc(Cl)nc32)cc1 [Compound 7, 4-((2,6-Dichloro-9H-purin-9-yl)methyl)-N-(3-(trifluoromethyl)phenyl)benzamide]",4.56 ± 1.73 µM,11%,36 to 45%,22 to 26%,24%,16%,26.9 ± 0.64 µM,,2.27 ± 0.81 µM,0%,1.42 ± 0.54 µM,6%,6.93 ± 1.18 µM,6%,0%,60.9%,23.53% and 23.5%,14.2%,29.94% and 29.9%,17.4%,"% Inhibition at 1 µM, PDGFRβ [3]: 30%; Cells in G1 phase ([14]; 10 μM): 55.5%; Cells in G2/M phase ([14]; 10 μM): 26.02% and 26.0%; Cells in S phase ([14]; 10 μM): 17.7%; Cells in G1 phase ([14]; 20 μM): 51.2%; % Inhibition at 1 µM, HER2 [4]: 22%"
"Cc1cn(-c2cc(NC(=O)c3ccc(Cn4cnc5c(Cl)nc(Cl)nc54)cc3)cc(C(F)(F)F)c2)cn1 [Compound 10, 4-((2,6-Dichloro-9H-purin-9-yl)methyl)-N-(3-(4-methyl-1H-imidazol-1-yl)-5-(trifluoromethyl)-phenyl)benzamide]",24.8 ± 3.25 µM,16%,39%,11%,36%,43%,18 ± 0.73 µM,,2.53 ± 0.77 µM,0%,1.52 ± 0.66 µM,9%,6.05 ± 1.03 µM,0%,0%,56.9%,24.3%,16.8%,25.3%,19.3%,Cells in G1 phase ([14]; 10 μM): 53.3%; Cells in G2/M phase ([14]; 10 μM): 24.2%; Cells in S phase ([14]; 10 μM): 21.5%
"CNC(=O)c1cc(Oc2ccc(NC(=O)Nc3ccc(Cl)c(C(F)(F)F)c3)cc2)ccn1 [Sorafenib, sorafenib, reference compound]",13.6 ± 1.71 µM,,,,,,6.01 ± 1.27 µM,,2.9 ± 0.4 µM,,,,6.82 ± 2.64 µM,,,,,,19.7%,17.3%,Cells in G1 phase ([14]; 20 μM): 61.9%
"COc1nc(Cl)nc2c1ncn2Cc1ccc(C(=O)Nc2cccc(C(F)(F)F)c2)cc1 [Compound 13, 4-((2-Chloro-6-methoxy-9H-purin-9-yl)methyl)-N-(3-(trifluoromethyl)phenyl)benzamide]",15.5 ± 2.27 µM,30%,17%,0%,24%,21%,13 ± 0.67 µM,212 to 214 °C,29.7 ± 1.87 µM,0%,26.1 ± 1.23 µM,29%,15.4 ± 1.92 µM,0%,0%,,,,,,
"Nc1nc(Cl)nc2c1ncn2Cc1ccc(C(=O)Nc2cccc(C(F)(F)F)c2)cc1 [Compound 15, 4-((6-Amino-2-chloro-9H-purin-9-yl)methyl)-N-(3-(trifluoromethyl)phenyl)benzamide]",,13%,33%,0%,17%,28%,,272 to 274 °C,30.6 ± 0.94 µM,0%,7.18 µM,0%,,0%,0%,,,,,,
